Our source for the TGI and GI50 values is PubChem BioAssay (NCI).

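Cells were grown in 96-well plates and exposed to each compound for 48 hours at five concentrations; endpoints were interpolated linearly between bracketing concentrations, or set to the highest concentration if not reached. GI50: concentration for 50% inhibition of growth. The concentration for full growth arrest is given as TGI.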 Bounds are passed on as bounds.

Among the test systems are HCT-15 colon; A498 renal; UO-31 renal; HL-60(TB) leukemia; MCF7 breast; NCI/ADR-RES ovarian; NCI-H522 lung; SK-MEL-28 melanoma; LOX IMVI melanoma; T-47D breast.
What all share (experiment): NCI-60 cell line screen, 48 h

For the molecule `O=C(NCCCl)O/N=C/c1cccnc1`, the TGI with HCT-15 colon, with A498 renal, in the test on UO-31 renal, with HL-60(TB) leukemia, with MCF7 breast and in the test on NCI/ADR-RES ovarian was more than 100 µM each time. For the same molecule, the TGI in the test on NCI-H522 lung, with SK-MEL-28 melanoma and in the test with LOX IMVI melanoma was more than 100 µM each time. The GI50 with A498 renal was 78.2 µM.

Regarding `Clc1sc(Cl)c2c1[C@@H](Cl)C[C@@H]2Br`, the TGI in the test with HCT-15 colon, with UO-31 renal, in the test on MCF7 breast, in the test with T-47D breast, in the test on NCI-H522 lung and with SK-MEL-28 melanoma was more than 100 µM in each case. The molecule further displayed a TGI in the test on LOX IMVI melanoma of more than 100 µM.

In the case of `Cn1ncc2c(NCc3ccccc3)ncnc21`, the TGI in the test on HCT-15 colon, with A498 renal, with UO-31 renal, in the test with HL-60(TB) leukemia, in the test on MCF7 breast and with T-47D breast was more than 100 µM in each case. Also, the TGI with NCI/ADR-RES ovarian, with SK-MEL-28 melanoma and with LOX IMVI melanoma was more than 100 µM in each case.

In the case of `N#CC(c1ccccc1)N(CCOCCOCCN(C(=O)c1ccccc1)C(C#N)c1ccccc1)C(=O)c1ccccc1` (centres undefined), the TGI is more than 100 µM with HCT-15 colon; more than 100 µM in the test on A498 renal; more than 100 µM with UO-31 renal; more than 100 µM in the test with HL-60(TB) leukemia; more than 100 µM with MCF7 breast; 67.4 µM with T-47D breast. Besides, the TGI in the test on NCI/ADR-RES ovarian, with SK-MEL-28 melanoma and with LOX IMVI melanoma was more than 100 µM each time.

On to `Nc1c(S(=O)(=O)c2ccc(Cl)cc2)c2nc3ccccc3nc2n2ccnc12`, for which the TGI in the test with HCT-15 colon, in the test on UO-31 renal, in the test with HL-60(TB) leukemia, in the test with NCI-H522 lung and with SK-MEL-28 melanoma was more than 100 µM throughout.

`CC(C)C1=CC23CCC4C(C)(C(=O)O)CCCC4(C)C2CC1C1C(=O)N(CCCCCCN2C(=O)C4C5CC6C7(C)CCCC(C)(C(=O)O)C7CCC6(C=C5C(C)C)C4C2=O)C(=O)C13` (centres undefined): the TGI in the test with HCT-15 colon turned out to be 30.4 µM; in the test with A498 renal, 24.3 µM; in the test with HL-60(TB) leukemia it was 82.6 µM; with MCF7 breast it was 21.7 µM; with T-47D breast, 41.5 µM; in the test with NCI-H522 lung, 26.6 µM. For the same molecule, in the test with SK-MEL-28 melanoma, the TGI came to 23.6 µM.

Consider `COc1ccc(NC(=O)CSc2nnc(-c3ccc(NC(C)=O)cc3)o2)cc1`, for which the TGI was found to be 30.2 µM with HCT-15 colon; 30.2 µM in the test on A498 renal; 33 µM in the test with UO-31 renal; 50.9 µM in the test on HL-60(TB) leukemia; 33.9 µM in the test on NCI-H522 lung; 34.7 µM in the test with SK-MEL-28 melanoma. The molecule further returned a TGI with LOX IMVI melanoma of 29.5 µM.

In the case of `CCOC(=O)c1c2cccccc-2nc1Nc1cccc2c(C)ccnc12`, the TGI in the test with HCT-15 colon, in the test on A498 renal, in the test with UO-31 renal, in the test on HL-60(TB) leukemia, in the test with MCF7 breast and in the test with T-47D breast was more than 10 µM each time. Moreover, the TGI with NCI/ADR-RES ovarian, in the test on SK-MEL-28 melanoma and with LOX IMVI melanoma was more than 10 µM each time.

For the molecule `O=C(NN1C(=O)CS(=O)(=O)C1c1ccc(C(F)(F)F)cc1)c1ccncc1` (centres undefined), the TGI in the test with HCT-15 colon, with A498 renal, in the test with HL-60(TB) leukemia, in the test with NCI-H522 lung, in the test with SK-MEL-28 melanoma and with LOX IMVI melanoma was more than 100 µM in each case.

As for `O=C1NC(O)CCN1C1OC(CO)C(O)C1O` (centres undefined), the TGI in the test on HCT-15 colon, with A498 renal, with UO-31 renal, in the test on HL-60(TB) leukemia, with MCF7 breast and in the test on NCI/ADR-RES ovarian was more than 250 µM throughout. The TGI in the test with NCI-H522 lung was 247 µM; with SK-MEL-28 melanoma it was more than 250 µM; with LOX IMVI melanoma, more than 250 µM.

Consider `O=C(OCC(Cl)(Cl)Cl)N1CC[C@H](C2CCCCC2)C1`, for which the TGI is 34.8 µM with HCT-15 colon; 35.3 µM in the test on UO-31 renal; 34.9 µM in the test on MCF7 breast; 35.1 µM in the test with T-47D breast; 28.5 µM with NCI/ADR-RES ovarian; 32.5 µM in the test with NCI-H522 lung. Moreover, the TGI with LOX IMVI melanoma was 41.1 µM.

Take `Cc1ccsc1/C=N/Nc1cnccn1`: the TGI in the test on HCT-15 colon, in the test on A498 renal, with UO-31 renal, with HL-60(TB) leukemia, in the test with MCF7 breast and with T-47D breast was more than 100 µM throughout. Moreover, the TGI in the test with NCI/ADR-RES ovarian, in the test with SK-MEL-28 melanoma and in the test with LOX IMVI melanoma was more than 100 µM in each case.

Consider `O=C1/C(=C/c2ccc(Cl)cc2)CCCc2ccccc21`, for which the TGI in the test on HCT-15 colon stood at 27.7 µM; in the test on UO-31 renal it was 35.4 µM; in the test on HL-60(TB) leukemia, 33.5 µM; in the test on MCF7 breast it was 65.8 µM; in the test on NCI/ADR-RES ovarian it was 32.6 µM; in the test on NCI-H522 lung it was 26.5 µM. The TGI in the test on SK-MEL-28 melanoma stood at 30.7 µM; with LOX IMVI melanoma, 31 µM.

Regarding `Cc1cc(C[C@H]2O[C@@H]3OC(C)(C)O[C@@H]3[C@H]3OC(C)(C)O[C@H]32)c2ccccc2n1`, the TGI in the test with HCT-15 colon was more than 100 µM; in the test on A498 renal, more than 100 µM; in the test with UO-31 renal it was more than 100 µM; in the test on HL-60(TB) leukemia, 51.5 µM; in the test on T-47D breast it was more than 100 µM; with NCI/ADR-RES ovarian, more than 100 µM. The figures for the TGI in the test with NCI-H522 lung, with SK-MEL-28 melanoma and in the test on LOX IMVI melanoma were 94.4 µM, more than 100 µM and more than 100 µM, respectively.

`O=C(O)c1cccc(S(=O)(=O)NN2C(=O)CSC2c2ccc(Cl)cc2Cl)c1` (centres undefined): the TGI in the test on HCT-15 colon was more than 100 µM; in the test with A498 renal, more than 100 µM; in the test on UO-31 renal it was more than 100 µM; in the test with HL-60(TB) leukemia, 34 µM; in the test with MCF7 breast it was more than 100 µM; in the test with T-47D breast, more than 100 µM. Also, the TGI with NCI-H522 lung is 91.4 µM; with SK-MEL-28 melanoma, 75.8 µM; in the test on LOX IMVI melanoma it was more than 100 µM.

Consider `CCN(CC)c1ccc(/C=C/c2ccnc3ccccc23)cc1`, for which the TGI with HCT-15 colon, in the test on A498 renal, in the test on UO-31 renal, in the test on HL-60(TB) leukemia, in the test on MCF7 breast and with T-47D breast was more than 100 µM each time. For the same molecule, the TGI with NCI/ADR-RES ovarian, in the test on SK-MEL-28 melanoma and with LOX IMVI melanoma was more than 100 µM throughout.
